Reference: ChEMBL document CHEMBL3745631, “Discovery of highly potent and selective Bruton's tyrosine kinase inhibitors: Pyridazinone analogs with improved metabolic stability” (Bioorg Med Chem Lett, 2016)

Tests used:
[1] = target: Interleukin-1 receptor-associated kinase 1 (Homo sapiens) (UniProt P51617); test: Inhibition of IRAK1 (unknown origin) at 1 uM
[2] = target: Dual specificity protein kinase CLK4 (Homo sapiens) (UniProt Q9HAZ1); test: Inhibition of CLK4 (unknown origin) at 1 uM
[3] = target: Rho-associated protein kinase 1 (Homo sapiens) (UniProt Q13464); test: Inhibition of ROCK1 (unknown origin) at 1 uM
[4] = target: Aurora kinase B (Homo sapiens) (UniProt Q96GD4); test: Inhibition of AuroraB (unknown origin) at 1 uM
[5] = target: Dual specificity mitogen-activated protein kinase kinase 1 (Homo sapiens) (UniProt Q02750); test: Inhibition of MEK1 (unknown origin) at 1 uM
[6] = target: Dual specificity tyrosine-phosphorylation-regulated kinase 4 (Homo sapiens) (UniProt Q9NR20); test: Inhibition of DYRK4 (unknown origin) at 1 uM
[7] = target: Serine/threonine-protein kinase 3 (Homo sapiens) (UniProt Q13188); test: Inhibition of MST2 (unknown origin) at 1 uM
[8] = target: Serine/threonine-protein kinase MRCK alpha (Homo sapiens) (UniProt Q5VT25); test: Inhibition of MRCK alpha (unknown origin) at 1 uM
Sequence of Serine/threonine-protein kinase MRCK alpha (Homo sapiens) (Q5VT25 whole entry): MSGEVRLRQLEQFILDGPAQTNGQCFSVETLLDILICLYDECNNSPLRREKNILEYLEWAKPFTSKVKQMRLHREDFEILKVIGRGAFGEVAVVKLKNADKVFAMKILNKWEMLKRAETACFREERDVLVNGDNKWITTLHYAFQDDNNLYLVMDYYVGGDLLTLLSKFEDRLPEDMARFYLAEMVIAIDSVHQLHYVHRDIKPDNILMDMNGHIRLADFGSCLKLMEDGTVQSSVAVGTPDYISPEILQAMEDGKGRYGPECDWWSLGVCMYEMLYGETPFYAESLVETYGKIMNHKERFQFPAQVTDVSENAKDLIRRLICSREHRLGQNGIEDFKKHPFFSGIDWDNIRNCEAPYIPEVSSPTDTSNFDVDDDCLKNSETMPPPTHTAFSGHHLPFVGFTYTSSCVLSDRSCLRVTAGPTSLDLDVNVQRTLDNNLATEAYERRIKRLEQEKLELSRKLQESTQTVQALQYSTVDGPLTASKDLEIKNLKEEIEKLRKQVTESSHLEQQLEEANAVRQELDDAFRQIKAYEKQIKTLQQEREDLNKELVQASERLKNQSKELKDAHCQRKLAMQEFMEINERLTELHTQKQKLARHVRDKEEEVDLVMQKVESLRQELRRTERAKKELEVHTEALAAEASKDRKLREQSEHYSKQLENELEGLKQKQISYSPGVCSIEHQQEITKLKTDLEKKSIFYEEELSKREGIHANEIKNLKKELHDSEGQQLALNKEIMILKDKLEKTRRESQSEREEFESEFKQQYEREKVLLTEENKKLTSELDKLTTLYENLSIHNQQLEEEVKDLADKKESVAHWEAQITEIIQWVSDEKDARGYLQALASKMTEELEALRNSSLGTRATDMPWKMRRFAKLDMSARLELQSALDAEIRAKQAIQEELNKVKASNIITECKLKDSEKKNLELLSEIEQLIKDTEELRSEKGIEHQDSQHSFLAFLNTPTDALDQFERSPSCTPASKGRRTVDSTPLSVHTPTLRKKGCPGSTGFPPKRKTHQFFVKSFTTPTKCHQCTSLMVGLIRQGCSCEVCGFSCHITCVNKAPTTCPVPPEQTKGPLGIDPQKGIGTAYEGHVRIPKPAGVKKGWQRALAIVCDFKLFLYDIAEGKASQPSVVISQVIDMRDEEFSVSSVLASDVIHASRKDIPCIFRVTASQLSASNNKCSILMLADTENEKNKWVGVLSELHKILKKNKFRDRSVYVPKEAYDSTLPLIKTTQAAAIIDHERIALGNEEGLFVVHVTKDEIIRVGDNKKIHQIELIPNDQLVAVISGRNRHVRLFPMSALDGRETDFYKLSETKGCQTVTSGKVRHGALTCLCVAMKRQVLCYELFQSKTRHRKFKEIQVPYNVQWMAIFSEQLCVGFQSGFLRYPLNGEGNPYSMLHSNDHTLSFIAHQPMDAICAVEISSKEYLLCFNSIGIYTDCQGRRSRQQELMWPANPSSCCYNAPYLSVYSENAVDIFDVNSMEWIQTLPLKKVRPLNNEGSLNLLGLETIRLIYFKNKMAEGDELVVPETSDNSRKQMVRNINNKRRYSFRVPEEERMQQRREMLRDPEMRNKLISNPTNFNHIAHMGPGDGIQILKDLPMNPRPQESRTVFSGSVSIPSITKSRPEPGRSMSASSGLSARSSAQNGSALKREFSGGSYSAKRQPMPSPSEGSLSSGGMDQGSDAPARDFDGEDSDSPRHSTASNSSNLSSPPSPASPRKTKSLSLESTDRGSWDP

[9] = target: Mitogen-activated protein kinase 12 (Homo sapiens) (UniProt P53778); test: Inhibition of p38 gamma (unknown origin) at 1 uM
[10] = target: Dual specificity protein kinase CLK3 (Homo sapiens) (UniProt P49761); test: Inhibition of CLK3 (unknown origin) at 1 uM
[11] = target: Serine/threonine-protein kinase PLK2 (Homo sapiens) (UniProt Q9NYY3); test: Inhibition of PLK2 (unknown origin) at 1 uM
[12] = target: Serine/threonine-protein kinase TAO1 (Homo sapiens) (UniProt Q7L7X3); test: Inhibition of TAO1 (unknown origin) at 1 uM
[13] = target: G protein-coupled receptor kinase 6 (Homo sapiens) (UniProt P43250); test: Inhibition of GRK6 (unknown origin) at 1 uM
[14] = target: Serine/threonine-protein kinase B-raf (Homo sapiens) (UniProt P15056); test: Inhibition of B-Raf (unknown origin) at 1 uM
[15] = target: STE20-like serine/threonine-protein kinase (SLK) (Homo sapiens) (UniProt Q9H2G2); test: Inhibition of SLK (unknown origin) at 1 uM
[16] = target: Fibroblast growth factor receptor 1 (Homo sapiens) (UniProt P11362); test: Inhibition of FGFR1 (unknown origin) at 1 uM
[17] = target: Tyrosine-protein kinase ZAP-70 (Homo sapiens) (UniProt P43403); test: Inhibition of ZAP-70 (unknown origin) at 1 uM
[18] = target: Macrophage colony-stimulating factor 1 receptor (Homo sapiens) (UniProt P07333); test: Inhibition of CSF1R (unknown origin) at 1 uM
[19] = target: Ephrin type-A receptor 7 (Homo sapiens) (UniProt Q15375); test: Inhibition of EphA7 (unknown origin) at 1 uM
[20] = target: Ribosomal protein S6 kinase alpha-2 (Homo sapiens) (UniProt Q15349); test: Inhibition of Rsk3 (unknown origin) at 1 uM
[21] = target: Mitogen-activated protein kinase 14 (Homo sapiens) (UniProt Q16539); test: Inhibition of p38alpha (unknown origin) at 1 uM
Sequence of Mitogen-activated protein kinase 14 (Homo sapiens) (Q16539 whole entry): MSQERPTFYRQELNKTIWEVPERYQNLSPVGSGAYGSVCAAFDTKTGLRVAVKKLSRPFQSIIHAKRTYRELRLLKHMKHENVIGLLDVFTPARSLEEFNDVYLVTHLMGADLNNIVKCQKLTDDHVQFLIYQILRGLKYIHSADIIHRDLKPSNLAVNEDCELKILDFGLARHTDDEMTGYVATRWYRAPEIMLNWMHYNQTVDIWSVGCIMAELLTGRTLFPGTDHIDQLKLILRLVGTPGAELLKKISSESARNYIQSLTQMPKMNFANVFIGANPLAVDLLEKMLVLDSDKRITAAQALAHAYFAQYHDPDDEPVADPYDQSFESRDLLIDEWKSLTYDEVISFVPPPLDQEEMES

[22] = target: MAP kinase-activated protein kinase 5 (Homo sapiens) (UniProt Q8IW41); test: Inhibition of PRAK (unknown origin) at 1 uM
Sequence of MAP kinase-activated protein kinase 5 (Homo sapiens) (Q8IW41 whole entry): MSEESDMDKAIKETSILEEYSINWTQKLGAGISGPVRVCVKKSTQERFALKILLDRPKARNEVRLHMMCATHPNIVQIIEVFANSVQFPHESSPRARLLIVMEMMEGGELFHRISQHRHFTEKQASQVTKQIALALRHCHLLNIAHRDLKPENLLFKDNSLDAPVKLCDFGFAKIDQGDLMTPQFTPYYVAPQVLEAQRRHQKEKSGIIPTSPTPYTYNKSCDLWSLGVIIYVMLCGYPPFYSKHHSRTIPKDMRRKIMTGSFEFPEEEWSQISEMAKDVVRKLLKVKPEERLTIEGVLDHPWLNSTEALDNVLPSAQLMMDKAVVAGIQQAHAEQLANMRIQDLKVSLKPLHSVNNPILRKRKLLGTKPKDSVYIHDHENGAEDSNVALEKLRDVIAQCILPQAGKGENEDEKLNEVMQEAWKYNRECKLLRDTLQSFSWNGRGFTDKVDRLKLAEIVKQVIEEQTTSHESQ

[23] = target: Proto-oncogene tyrosine-protein kinase receptor Ret (Homo sapiens) (UniProt P07949); test: Inhibition of Ret (unknown origin) at 1 uM
[24] = target: Homeodomain-interacting protein kinase 4 (Homo sapiens) (UniProt Q8NE63); test: Inhibition of HIPK4 (unknown origin) at 1 uM
[25] = target: Ribosomal protein S6 kinase alpha-5 (Homo sapiens) (UniProt O75582); test: Inhibition of MSK1 (unknown origin) at 1 uM
Sequence of Ribosomal protein S6 kinase alpha-5 (Homo sapiens) (O75582 whole entry, looked up): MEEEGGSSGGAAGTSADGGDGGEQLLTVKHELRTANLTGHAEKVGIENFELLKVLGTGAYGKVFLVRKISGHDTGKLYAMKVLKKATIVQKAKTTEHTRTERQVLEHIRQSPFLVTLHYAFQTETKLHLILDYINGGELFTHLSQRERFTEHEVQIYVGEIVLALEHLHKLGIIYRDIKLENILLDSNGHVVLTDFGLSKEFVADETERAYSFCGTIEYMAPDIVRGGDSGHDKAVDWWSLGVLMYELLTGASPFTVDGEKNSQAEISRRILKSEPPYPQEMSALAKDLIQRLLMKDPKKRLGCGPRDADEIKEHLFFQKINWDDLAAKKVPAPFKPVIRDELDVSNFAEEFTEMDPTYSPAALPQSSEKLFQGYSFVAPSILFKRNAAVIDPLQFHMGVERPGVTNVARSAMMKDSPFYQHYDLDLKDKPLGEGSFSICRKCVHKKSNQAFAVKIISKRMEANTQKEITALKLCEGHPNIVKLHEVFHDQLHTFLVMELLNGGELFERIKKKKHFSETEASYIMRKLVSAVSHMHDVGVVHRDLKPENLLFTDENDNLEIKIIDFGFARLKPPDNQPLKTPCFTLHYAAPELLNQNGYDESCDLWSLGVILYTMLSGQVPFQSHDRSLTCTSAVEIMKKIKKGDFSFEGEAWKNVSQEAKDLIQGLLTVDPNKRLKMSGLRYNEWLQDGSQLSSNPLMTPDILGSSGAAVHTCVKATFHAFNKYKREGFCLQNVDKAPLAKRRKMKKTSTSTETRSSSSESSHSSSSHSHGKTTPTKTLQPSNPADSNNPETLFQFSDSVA

[26] = target: Activin receptor type-2B (Homo sapiens) (UniProt Q13705); test: Inhibition of ACVR2B (unknown origin) at 1 uM
[27] = target: Dual specificity protein kinase CLK1 (Homo sapiens) (UniProt P49759); test: Inhibition of CLK1 (unknown origin) at 1 uM
[28] = target: Angiopoietin-1 receptor (Homo sapiens) (UniProt Q02763); test: Inhibition of Tie2 (unknown origin) at 1 uM
[29] = target: Mitogen-activated protein kinase 11 (Homo sapiens) (UniProt Q15759); test: Inhibition of p38 beta (unknown origin) at 1 uM
[30] = target: Serine/threonine-protein kinase 24 (Homo sapiens) (UniProt Q9Y6E0); test: Inhibition of MST3 (unknown origin) at 1 uM
[31] = target: Epithelial discoidin domain-containing receptor 1 (Homo sapiens) (UniProt Q08345); test: Inhibition of DDR1 (unknown origin) at 1 uM
Sequence of Epithelial discoidin domain-containing receptor 1 (Homo sapiens) (Q08345 whole entry, the tested form may be a part): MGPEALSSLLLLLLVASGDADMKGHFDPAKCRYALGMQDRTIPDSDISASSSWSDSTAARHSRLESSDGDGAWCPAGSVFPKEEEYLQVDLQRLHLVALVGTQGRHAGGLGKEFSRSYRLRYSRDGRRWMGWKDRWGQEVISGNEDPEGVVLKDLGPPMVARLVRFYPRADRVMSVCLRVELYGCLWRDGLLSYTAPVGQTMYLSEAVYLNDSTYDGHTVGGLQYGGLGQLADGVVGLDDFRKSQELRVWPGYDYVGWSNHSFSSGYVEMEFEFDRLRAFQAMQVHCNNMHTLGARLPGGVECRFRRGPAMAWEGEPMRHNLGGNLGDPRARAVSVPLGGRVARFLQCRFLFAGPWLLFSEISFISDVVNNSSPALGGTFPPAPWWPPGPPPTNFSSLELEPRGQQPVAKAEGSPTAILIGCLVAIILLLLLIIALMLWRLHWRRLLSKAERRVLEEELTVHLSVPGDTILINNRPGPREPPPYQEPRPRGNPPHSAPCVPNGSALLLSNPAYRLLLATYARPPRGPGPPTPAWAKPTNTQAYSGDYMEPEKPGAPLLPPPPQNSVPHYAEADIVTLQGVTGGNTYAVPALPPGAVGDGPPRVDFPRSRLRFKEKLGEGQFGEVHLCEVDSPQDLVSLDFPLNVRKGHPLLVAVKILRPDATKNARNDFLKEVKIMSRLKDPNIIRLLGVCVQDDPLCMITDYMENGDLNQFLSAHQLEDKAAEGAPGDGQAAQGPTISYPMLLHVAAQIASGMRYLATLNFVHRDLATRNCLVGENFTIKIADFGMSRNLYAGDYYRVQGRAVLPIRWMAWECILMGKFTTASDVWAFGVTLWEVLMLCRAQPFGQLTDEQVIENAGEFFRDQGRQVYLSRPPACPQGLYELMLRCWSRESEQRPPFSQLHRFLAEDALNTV

[32] = target: Protein kinase C beta type (Homo sapiens) (UniProt P05771); test: Inhibition of PKC beta1 (unknown origin) at 1 uM
[33] = target: Serine/threonine-protein kinase mTOR (Homo sapiens) (UniProt P42345); test: Inhibition of mTOR (unknown origin) at 1 uM
[34] = target: Serine/threonine-protein kinase PAK 4 (Homo sapiens) (UniProt O96013); test: Inhibition of PAK4 (unknown origin) at 1 uM
[35] = target: Serine/threonine-protein kinase NLK (Homo sapiens) (UniProt Q9UBE8); test: Inhibition of NLK (unknown origin) at 1 uM
[36] = target: Eukaryotic elongation factor 2 kinase (Homo sapiens) (UniProt O00418); test: Inhibition of eEF-2K (unknown origin) at 1 uM
[37] = target: Tyrosine-protein kinase receptor TYRO3 (Homo sapiens) (UniProt Q06418); test: Inhibition of Rse (unknown origin) at 1 uM
[38] = target: Fibroblast growth factor receptor 4 (Homo sapiens) (UniProt P22455); test: Inhibition of FGFR4 (unknown origin) at 1 uM
[39] = target: Tyrosine-protein kinase TXK (Homo sapiens) (UniProt P42681); test: Inhibition of TXK (unknown origin) at 1 uM
[40] = target: Beta-adrenergic receptor kinase 1 (Homo sapiens) (UniProt P25098); test: Inhibition of GRK2 (unknown origin) at 1 uM
Sequence of Beta-adrenergic receptor kinase 1 (Homo sapiens) (P25098 whole entry): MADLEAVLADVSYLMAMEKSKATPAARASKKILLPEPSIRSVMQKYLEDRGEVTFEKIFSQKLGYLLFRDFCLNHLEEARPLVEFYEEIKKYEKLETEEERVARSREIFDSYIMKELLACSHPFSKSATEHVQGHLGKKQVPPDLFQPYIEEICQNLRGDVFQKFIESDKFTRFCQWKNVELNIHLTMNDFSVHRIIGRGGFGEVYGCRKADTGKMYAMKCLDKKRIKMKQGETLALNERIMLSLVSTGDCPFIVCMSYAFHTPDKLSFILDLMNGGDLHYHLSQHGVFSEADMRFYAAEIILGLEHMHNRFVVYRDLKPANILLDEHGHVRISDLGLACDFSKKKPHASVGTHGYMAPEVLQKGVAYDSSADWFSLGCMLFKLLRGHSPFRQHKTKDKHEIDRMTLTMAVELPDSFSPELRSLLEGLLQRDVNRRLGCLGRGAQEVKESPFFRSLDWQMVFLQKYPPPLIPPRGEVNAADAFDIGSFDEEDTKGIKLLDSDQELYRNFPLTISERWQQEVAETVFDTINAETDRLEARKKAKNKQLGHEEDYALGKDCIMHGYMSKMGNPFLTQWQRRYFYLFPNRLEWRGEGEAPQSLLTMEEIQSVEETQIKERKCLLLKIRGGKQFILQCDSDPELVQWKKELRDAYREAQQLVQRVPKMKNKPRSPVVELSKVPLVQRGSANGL

[41] = target: Ephrin type-A receptor 8 (Homo sapiens) (UniProt P29322); test: Inhibition of EphA8 (unknown origin) at 1 uM
[42] = target: Serine/threonine-protein kinase 25 (Homo sapiens) (UniProt O00506); test: Inhibition of YSK1 (unknown origin) at 1 uM
[43] = target: Vascular endothelial growth factor receptor 2 (Homo sapiens) (UniProt P35968); test: Inhibition of KDR (unknown origin) at 1 uM
[44] = target: Calcium/calmodulin-dependent protein kinase type IV (Homo sapiens) (UniProt Q16566); test: Inhibition of CamK4(unknown origin) at 1 uM

Structure (SMILES): Cc1c(-c2cc(Nc3cc4n(n3)CCN(C)C4)c(=O)[nH]n2)ccc(F)c1NC(=O)c1cc2ccccc2s1
- inhibition [1]: -2.2%
- inhibition [2]: 5.8%
- inhibition [3]: -4.8%
- inhibition [4]: -0.4%
- inhibition [5]: 4.5%
- inhibition [6]: -1.1%
- inhibition [7]: -4.1%
- inhibition [8]: -4.5%
- inhibition [9]: 6.5%
- inhibition [10]: 2.9%
- inhibition [11]: 5.8%
- inhibition [12]: -3.8%
- inhibition [13]: 4.7%
- inhibition [14]: 0.6%
- inhibition [15]: -3%
- inhibition [16]: -3.1%
- inhibition [17]: 8.1%
- inhibition [18]: 13%
- inhibition [19]: -2%
- inhibition [20]: -0.6%
- inhibition [21]: 1%
- inhibition [22]: 2%
- inhibition [23]: 14.9%
- inhibition [24]: 7.8%
- inhibition [25]: -6.5%
- inhibition [26]: 4.5%
- inhibition [27]: 5%
- inhibition [28]: 7.4%
- inhibition [29]: 8.7%
- inhibition [30]: 9%
- inhibition [31]: 0.8%
- inhibition [32]: 0.2%
- inhibition [33]: 1.1%
- inhibition [34]: 6.2%
- inhibition [35]: -4.8%
- inhibition [36]: 3%
- inhibition [37]: 2.5%
- inhibition [38]: -3.5%
- inhibition [39]: -4.7%
- inhibition [40]: 0.8%
- inhibition [41]: 7.2%
- inhibition [42]: -3.4%
- inhibition [43]: -2.4%
- inhibition [44]: 2.4%
